Converted amounts (≈) assume the structure as drawn. Blank lines part the entries; values can stand above or below the molecule they belong to.
What was measured:
Type in all cases: physicochemical
[1] = Moisture sorption/desorption analysis (VTI SGA-100); conditions: for solid form after moisture sorption/desorption analysis: after sorption/desorption cycle
Protocol: Moisture sorption/desorption data were collected on a VTI SGA-100 Vapor Sorption Analyzer. Sorption and desorption data were collected over a range of 5 to 95% relative humidity (RH) at 10% RH increments under a nitrogen purge. Sodium chloride (NaCl) and polyvinylpyrrolidone (PVP) were used as the calibration standards. Equilibrium criteria used for analysis were less than 0.0100% weight change in 5 minutes, with a maximum equilibration time of 180 minutes if the weight criterion was not met. Data collected were not corrected for the initial moisture content of the samples.

[2] = Thermogravimetric analysis (TGA)
Protocol: Thermogravimetric analysis (TGA) was carried out on TA Instruments TGA 2050 or 2950. The calibration standards were nickel and Alumel™. Samples were placed on a clean, aluminum sample pan, accurately weighed, and inserted into the TGA furnace. The samples were heated in nitrogen at a rate of 10° C./min, from 35° C. to a final temperature of 250° C.

[3] = Solid-state stress (compression, heating, grinding, storage) with XRPD form check
Protocol: X-ray powder diffraction analyses were carried out on a Shimadzu XRD-6000 X-ray powder diffractometer using Cu Kα radiation having a wavelength of 1.5406 Å. The instrument is equipped with a fine-focus X-ray tube. The tube power was set by setting potential difference at 40 kV, and current 40 mA. The divergence and scattering slits were set at 1° and the receiving slit was set at 0.15 mm. Diffracted radiation was detected by a NaI scintillation detector. A theta-two theta continuous scan at 3°/min (0.4 sec/0.02° step) from 2.5 to 40 °2θ was performed. A silicon standard was analyzed each day to check the instrument alignment. Each sample was analyzed in a quartz sample holder. A variable temperature (VT-XRPD) experiment was performed on one form. The sample was prepared for analysis by pressing it into a variable temperature holder.

[4] = Approximate solubility by solvent aliquot addition, visual inspection; conditions: thermodynamic from solid
Protocol: Solvents were either reagent or HPLC grade. The aliquots were typically either 100 μL or 1 mL. Between additions, the mixture was typically shaken or sonicated. Whether the solids dissolved was judged by visual inspection. Solubilities were estimated from these experiments based on the total solvent used to provide complete dissolution.
Solubilities were estimated from these experiments based on the total solvent used to give a solution. Duplicate runs were averaged.

[5] = Relative humidity stress experiments, XRPD after storage over saturated salt solutions
Protocol: In relative humidity (RH) stress analysis, open vials containing solid samples were placed inside chambers containing saturated salt solutions along with a small amount of the undissolved salt. The chambers were sealed and allowed to stand at ambient temperature for several days. Samples were analyzed by X-ray powder diffraction (XRPD) immediately after removing the sample from the RH chamber. The RH values these salt solutions were obtained from an ASTM standard.

water regained at 95% RH ([1]; 95% RH): 0.09%
Weight % chg ([1]; Table 5, desorption, RH 4.98 %, 25.07 deg C, 854.2 min): −2.2984%
Weight % chg ([1]; Table 5, desorption, RH 15.05 %, 25.07 deg C, 672.3 min): 0.0005%
Weight % chg ([1]; Table 5, desorption, RH 25.12 %, 25.06 deg C, 665.2 min): 0.0098%
Weight % chg ([1]; Table 5, desorption, RH 35.00 %, 25.07 deg C, 658.2 min): 0.0184%
Weight % chg ([1]; Table 5, desorption, RH 45.01 %, 25.06 deg C, 650.7 min): 0.0274%
Weight % chg ([1]; Table 5, desorption, RH 55.06 %, 25.06 deg C, 643.2 min): 0.0357%
Weight % chg ([1]; Table 5, desorption, RH 65.04 %, 25.07 deg C, 635.7 min): 0.0439%
Weight % chg ([1]; Table 5, desorption, RH 75.10 %, 25.06 deg C, 627.7 min): 0.0553%
Weight % chg ([1]; Table 5, desorption, RH 85.33 %, 25.07 deg C, 619.7 min): 0.0688%
Weight % chg ([1]; Table 5, sorption, RH 4.98 %, 25.06 deg C, 185.1 min): −2.3894%
Weight % chg ([1]; Table 5, sorption, RH 15.24 %, 25.07 deg C, 193.2 min): −2.4118%
Weight % chg ([1]; Table 5, sorption, RH 24.84 %, 25.07 deg C, 242.2 min): −2.2223%
Weight % chg ([1]; Table 5, sorption, RH 35.00 %, 25.06 deg C, 384.9 min): −1.2517%
Weight % chg ([1]; Table 5, sorption, RH 44.84 %, 25.06 deg C, 499.6 min): −0.5520%
Weight % chg ([1]; Table 5, sorption, RH 54.81 %, 25.07 deg C, 556.5 min): −0.1535%
Weight % chg ([1]; Table 5, sorption, RH 65.01 %, 25.07 deg C, 579.8 min): −0.0371%
Weight % chg ([1]; Table 5, sorption, RH 74.89 %, 25.08 deg C, 592.3 min): 0.0119%
Weight % chg ([1]; Table 5, sorption, RH 84.81 %, 25.08 deg C, 601.5 min): 0.0426%
Weight % chg ([1]; Table 5, sorption, RH 94.59 %, 25.09 deg C, 613.0 min): 0.0851%
Weight % chg ([1]; Table 5, start, RH 2.15 %, 25.08 deg C, 0.0 min): 0.0000%
Weight % chg ([1]; Table 7, desorption, RH 4.96 %, 25.03 deg C, 887.7 min): −1.6786%
Weight % chg ([1]; Table 7, desorption, RH 14.79 %, 25.03 deg C, 771.0 min): 6.1361%
Weight % chg ([1]; Table 7, desorption, RH 24.87 %, 25.03 deg C, 758.6 min): 6.2283%
Weight % chg ([1]; Table 7, desorption, RH 35.04 %, 25.03 deg C, 749.3 min): 6.3408%
Weight % chg ([1]; Table 7, desorption, RH 45.13 %, 25.02 deg C, 739.6 min): 6.4585%
Weight % chg ([1]; Table 7, desorption, RH 54.99 %, 25.02 deg C, 725.7 min): 6.6172%
Weight % chg ([1]; Table 7, desorption, RH 65.12 %, 25.03 deg C, 711.7 min): 6.8321%
Weight % chg ([1]; Table 7, desorption, RH 75.27 %, 25.03 deg C, 697.2 min): 7.1750%
Weight % chg ([1]; Table 7, desorption, RH 85.18 %, 25.03 deg C, 673.5 min): 7.9222%
Weight % chg ([1]; Table 7, sorption, RH 4.95 %, 25.07 deg C, 47.5 min): −1.4176%
Weight % chg ([1]; Table 7, sorption, RH 14.98 %, 25.08 deg C, 60.6 min): −1.3613%
Weight % chg ([1]; Table 7, sorption, RH 24.93 %, 25.08 deg C, 73.7 min): −1.2692%
Weight % chg ([1]; Table 7, sorption, RH 35.04 %, 25.08 deg C, 94.3 min): −0.8649%
Weight % chg ([1]; Table 7, sorption, RH 44.87 %, 25.08 deg C, 116.7 min): −0.4555%
Weight % chg ([1]; Table 7, sorption, RH 55.02 %, 25.05 deg C, 298.7 min): 3.5457%
Weight % chg ([1]; Table 7, sorption, RH 65.01 %, 25.05 deg C, 385.9 min): 6.2129%
Weight % chg ([1]; Table 7, sorption, RH 74.94 %, 25.05 deg C, 413.2 min): 6.6223%
Weight % chg ([1]; Table 7, sorption, RH 85.01 %, 25.05 deg C, 456.7 min): 7.2160%
Weight % chg ([1]; Table 7, sorption, RH 95.15 %, 25.03 deg C, 640.2 min): 11.2538%
Weight % chg ([1]; Table 7, start, RH 2.94 %, 25.07 deg C, 0.0 min): 0.0000%
solid form after moisture sorption/desorption analysis [1]: a mixture of forms B and form C
weight (water) lost upon equilibration to 5% RH [1]: ~2.4%
RH at which the moisture lost at 5% RH is regained ([1]; sorption cycle): about 44 % RH
TGA Results: percent weight change from 25 to 150° C. ([2]; listed as B): 7.212%
TGA Results: percent weight change from 25 to 150° C. ([2]; listed as form B): 7.2%
XRPD Pattern ([3]; Post TGA @ 150° C. 10 min (dry nitrogen)): converts to form A
form change in VT-XRPD experiment ([3]; heated in the presence of air): converted to a mixture of forms B and C
form change on storage ([3]; vacuum oven at room temperature for 6 days): converts to form C
Compound: Nc1ncn([C@H]2C[C@H](O)[C@@H](CO)O2)c(=O)n1.O [Form B]

solubility ([4]; 1,1,1,3,3,3-hexafluoro-2-propanol, organic solvent or mixture, solvent 1,1,1,3,3,3-Hexafluoro-2-propanol): ~18000 µg/mL (≈ 78.9 mM)
solubility ([4]; 1,1,1-trichloroethane, organic solvent or mixture, solvent 1,1,1-Trichloroethane): < 1000 µg/mL
solubility ([4]; 1,4-dioxane, organic solvent or mixture, solvent 1,4-Dioxane): < 2000 µg/mL
solubility ([4]; 2-butanone, organic solvent or mixture, solvent 2-Butanone): < 1000 µg/mL
solubility ([4]; 2-propanol, organic solvent or mixture, solvent 2-Propanol): < 1000 µg/mL
solubility ([4]; acetone, organic solvent or mixture, solvent Acetone): < 1000 µg/mL
solubility ([4]; acetonitrile, organic solvent or mixture, solvent Acetonitrile): < 1000 µg/mL
solubility ([4]; chloroform, organic solvent or mixture, solvent Chloroform): < 1000 µg/mL
solubility ([4]; dichloromethane, organic solvent or mixture, solvent Dichloromethane): < 1000 µg/mL
solubility ([4]; dichloromethane:ethanol (1:1), organic solvent or mixture, solvent Dichloromethane:Ethanol (1:1)): < 1000 µg/mL
solubility ([4]; dichloromethane:methanol (1:1), organic solvent or mixture, solvent Dichloromethane:Methanol (1:1)): > 1000 µg/mL
solubility ([4]; diethylamine, organic solvent or mixture, solvent Diethylamine): < 1000 µg/mL
solubility ([4]; ethyl acetate, organic solvent or mixture, solvent Ethyl Acetate): < 1000 µg/mL
solubility ([4]; ethyl ether, organic solvent or mixture, solvent Ethyl Ether): < 1000 µg/mL
solubility ([4]; hexanes, organic solvent or mixture, solvent Hexanes): < 1000 µg/mL
solubility ([4]; methanol:2,2,2-trifluoroethanol (1:1), organic solvent or mixture, solvent Methanol:2,2,2-Trifluoroethanol (1:1)): > 1000 µg/mL
solubility ([4]; methanol:water (1:1), aqueous with cosolvent or surfactant or cyclodextrin, solvent Methanol:Water (1:1)): 4000 µg/mL (≈ 17.5 mM)
solubility ([4]; methyl sulfide, organic solvent or mixture, solvent Methyl Sulfide): < 1000 µg/mL
solubility ([4]; methyl sulfoxide, organic solvent or mixture, solvent Methyl Sulfoxide): ~37000 µg/mL (≈ 162 mM)
solubility ([4]; nitromethane, organic solvent or mixture, solvent Nitromethane): < 1000 µg/mL
solubility ([4]; tetrahydrofuran, organic solvent or mixture, solvent Tetrahydrofuran): < 1000 µg/mL
solubility ([4]; toluene, organic solvent or mixture, solvent Toluene): < 1000 µg/mL
solubility ([4]; water, solvent Water): ~8000 µg/mL (≈ 35.1 mM)
XRPD Pattern ([3]; no solvent, Hydraulic Press 10,000 lbs ~3 min): A + 1 peak
Compound: Nc1ncn([C@H]2C[C@H](O)[C@@H](CO)O2)c(=O)n1 [Decitabine, 5-aza-2′-deoxycytidine]

total weight gain from 5 to 95% RH ([1]; 5 to 95% RH): ~13%
solid form after moisture sorption/desorption analysis ([1]; listed as form C): converts to form B
weight (water) lost upon equilibration to 5% RH [1]: 1.4%
weight (water) lost upon equilibration to 5% RH ([1]; listed as form C): approximately 1.4%
XRPD result ([5]; Magnesium Chloride, 33.1 % RH @ 20° C., 28 days): remained unchanged
XRPD result ([5]; Potassium Acetate, 23.1 % RH @ 20° C., 25 days): converted from form C to form B
XRPD result ([5]; Potassium Chloride, 85.1 % RH @ 20° C., 28 days): converted from form C to form B
TGA Results: percent weight change from 25 to 150° C. ([2]; listed as C): 1.2%
TGA Results: percent weight change from 25 to 150° C. ([2]; listed as form C): approximately 1.2%
TGA weight loss at about 150° C. ([2]; sample prepared by vacuum evaporation of a solution in water (sample no. 1029-65-05)): ~7.2%
TGA weight loss at about 150° C. ([2]; weight equilibrium event at 25° C. omitted from the TGA method): approximately 3.2%
Compound: Nc1ncn([C@H]2C[C@H](O)[C@@H](CO)O2)c(=O)n1 [Form C]

— US20060014949A1 (SuperGen Inc., priority 2004, published 2006)
